Results: the NIST ThermoML archive (doi:10.1021/je200851a)

Test: excess molar enthalpy (molar enthalpy of mixing); xn = mol fraction of the nth substance listed
Conditions: 298.15 K, 101 kPa, Liquid, Calvet calorimetry

CCCCCCCCC [nonane] + CCO
Conditions | excess molar enthalpy [kcal/mol]
x2 = 0.0507 | 0.087
x2 = 0.1378 | 0.132
x2 = 0.2453 | 0.156
x2 = 0.4164 | 0.168
x2 = 0.5022 | 0.162
x2 = 0.586 | 0.156
x2 = 0.6518 | 0.151
x2 = 0.6895 | 0.143
x2 = 0.749 | 0.13
x2 = 0.7877 | 0.12
x2 = 0.8433 | 0.1
x2 = 0.8715 | 0.0899
x2 = 0.9065 | 0.0715
x2 = 0.9296 | 0.0574
x2 = 0.9562 | 0.0387
